Assay results taken from US8791132B2, “Compounds and methods for treatment of hypertension” (Medivation Technologies, Inc., priority 2011, dated 2014).
pKi: −log10 of the molar value. Where two headings read alike, the source gives them in different places.

What was measured:
[1] = target: T1, human recombinant adrenergic α2B receptor (Homo sapiens, UniProt P18089); assay: Radioligand binding, adrenergic α2B ([3H]Rauwolscine)
T1 construct: expressed in transfected cells; host or cells: CHO-K1
T1 sequence (P18089 1-450): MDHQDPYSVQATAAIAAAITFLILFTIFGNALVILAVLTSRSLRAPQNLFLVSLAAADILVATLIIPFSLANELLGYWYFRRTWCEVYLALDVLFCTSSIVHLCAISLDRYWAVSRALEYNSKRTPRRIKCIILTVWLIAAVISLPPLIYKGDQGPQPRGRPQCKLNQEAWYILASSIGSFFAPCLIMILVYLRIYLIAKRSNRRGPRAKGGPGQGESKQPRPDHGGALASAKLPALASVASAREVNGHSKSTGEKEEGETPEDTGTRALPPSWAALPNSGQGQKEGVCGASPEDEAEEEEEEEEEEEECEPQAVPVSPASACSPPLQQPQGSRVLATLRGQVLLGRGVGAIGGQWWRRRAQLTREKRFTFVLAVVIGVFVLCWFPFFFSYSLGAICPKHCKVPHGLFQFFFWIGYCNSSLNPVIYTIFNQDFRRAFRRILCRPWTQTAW
Summary of the method: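 Readout: percent inhibition of specific [3H]Rauwolscine binding, measured by filtration and counting. Conditions: CHO-K1 cell-expressed receptor, 2.5 nM radioligand, 60 min, 25° C, Tris-HCl pH 7.4 buffer with MgCl2, EDTA, BSA. Non-specific binding: 10 μM Prazosin.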

[2] = target: T2, human recombinant adrenergic α2A receptor (Homo sapiens, UniProt P08913); assay: Radioligand binding, adrenergic α2A ([3H]MK-912)
T2 construct: expressed in transfected cells; host or cells: insect Sf9 cells
T2 sequence (P08913 1-465): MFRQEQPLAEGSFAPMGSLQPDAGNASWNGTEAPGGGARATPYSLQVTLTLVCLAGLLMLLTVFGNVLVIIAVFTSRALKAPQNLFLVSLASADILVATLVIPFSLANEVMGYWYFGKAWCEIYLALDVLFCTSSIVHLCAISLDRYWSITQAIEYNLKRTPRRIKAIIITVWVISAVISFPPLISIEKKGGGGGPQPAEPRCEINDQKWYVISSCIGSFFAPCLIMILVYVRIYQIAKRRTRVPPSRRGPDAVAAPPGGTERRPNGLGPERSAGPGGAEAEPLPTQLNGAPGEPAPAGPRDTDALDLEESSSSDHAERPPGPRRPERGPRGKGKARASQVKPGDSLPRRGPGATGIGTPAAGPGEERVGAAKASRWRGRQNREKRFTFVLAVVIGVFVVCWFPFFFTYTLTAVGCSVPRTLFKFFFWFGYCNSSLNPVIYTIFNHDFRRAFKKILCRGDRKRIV
Summary of the method: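 Receptor expressed in insect Sf9 cells, assayed in 50 mM Tris-HCl pH 7.4 with 12.5 mM MgCl2 and 2 mM EDTA. Compounds incubated with 1 nM [3H]MK-912 for 60 min at 25 °C; nonspecific binding defined with 10 μM WB-4101. Filter-bound radioactivity counted; values are percent inhibition of specific binding.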

[3] = target: T3, rat adrenergic α1B receptor (Rattus norvegicus, UniProt P15823); assay: Radioligand binding, adrenergic α1B ([3H]Prazosin); conditions: for inhibition at 0.03 µM: read-out: Percentage inhibition of ligand binding, Adrenergic α1B (0.03 μM), compound at 0.03 μM
T3 construct: rat adrenergic α1B receptor obtained from Wistar Rat liver; from tissue; host or cells: Wistar rat liver
T3 sequence (P15823 1-515): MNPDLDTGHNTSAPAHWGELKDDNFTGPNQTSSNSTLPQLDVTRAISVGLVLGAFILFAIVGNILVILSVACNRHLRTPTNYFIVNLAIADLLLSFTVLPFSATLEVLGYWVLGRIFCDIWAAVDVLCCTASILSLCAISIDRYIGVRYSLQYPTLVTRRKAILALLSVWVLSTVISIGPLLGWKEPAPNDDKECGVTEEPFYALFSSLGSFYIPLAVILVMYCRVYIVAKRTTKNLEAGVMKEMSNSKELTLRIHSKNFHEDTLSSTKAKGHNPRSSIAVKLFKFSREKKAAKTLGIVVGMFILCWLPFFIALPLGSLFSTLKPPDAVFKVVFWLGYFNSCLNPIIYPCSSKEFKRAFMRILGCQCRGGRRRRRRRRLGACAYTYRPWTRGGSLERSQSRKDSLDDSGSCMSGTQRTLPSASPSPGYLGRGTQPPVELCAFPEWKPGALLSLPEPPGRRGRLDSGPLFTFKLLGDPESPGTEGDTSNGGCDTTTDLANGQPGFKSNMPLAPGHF
Summary of the method: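 Incubation ran 60 min at 25 °C in Tris-HCl buffer (50 mM, pH 7.4, 0.5 mM EDTA) with Wistar rat liver α1B receptor. 10 μM phentolamine set non-specific binding.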

[4] = target: T4, human recombinant adrenergic α1D receptor (Homo sapiens, UniProt P25100); assay: Radioligand binding, adrenergic α1D ([3H]Prazosin); conditions: for inhibition at 0.03 µM: read-out: Percentage inhibition of ligand binding, Adrenergic α1D (0.03 μM), compound at 0.03 μM
T4 construct: expressed in transfected cells; host or cells: HEK-293
T4 sequence (P25100 1-572): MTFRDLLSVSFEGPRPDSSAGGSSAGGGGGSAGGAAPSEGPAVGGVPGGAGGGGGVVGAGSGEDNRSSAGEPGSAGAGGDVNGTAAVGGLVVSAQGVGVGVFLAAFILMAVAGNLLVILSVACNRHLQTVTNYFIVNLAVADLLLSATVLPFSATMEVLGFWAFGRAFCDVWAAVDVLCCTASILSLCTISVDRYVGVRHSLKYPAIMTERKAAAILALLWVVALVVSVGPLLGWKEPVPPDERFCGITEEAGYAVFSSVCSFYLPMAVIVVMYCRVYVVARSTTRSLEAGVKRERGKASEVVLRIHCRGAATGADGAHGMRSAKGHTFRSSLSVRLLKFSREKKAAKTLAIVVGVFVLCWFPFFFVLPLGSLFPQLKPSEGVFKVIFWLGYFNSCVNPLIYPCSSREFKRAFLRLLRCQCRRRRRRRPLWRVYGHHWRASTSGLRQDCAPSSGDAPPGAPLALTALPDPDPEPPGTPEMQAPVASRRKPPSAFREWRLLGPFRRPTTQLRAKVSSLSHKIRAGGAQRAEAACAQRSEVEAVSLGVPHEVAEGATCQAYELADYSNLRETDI
Description: Compounds were incubated with 0.6 nM [3H]Prazosin for 60 min at 25° C. Non-specific binding was estimated in the presence of 10 μM phentolamine. Receptor proteins were filtered and washed, the filters were then counted to determine [3H]Prazosin specifically bound. […] Biochemical assay results are presented as the percent inhibition of specific binding in Table B1.

[5] = compound at 0.1 μM, [3H]Rauwolscine, repeat assays, each datapoint shown, read-out: Percentage inhibition of ligand binding, Adrenergic α2B
[6] = compound at 0.1 μM, [3H]MK-912, repeat assays, each datapoint shown, read-out: Percentage inhibition of ligand binding, Adrenergic α2A
[7] = compound at 0.1 μM, [3H]Prazosin, repeat assays, each datapoint shown, read-out: Percentage inhibition of ligand binding, Adrenergic α1B
[8] = compound at 0.1 μM, [3H]Prazosin, repeat assays, each datapoint shown, read-out: Percentage inhibition of ligand binding, Adrenergic α1D
[9] = read-out: Percentage inhibition of ligand binding, Adrenergic α2B (0.1 μM), compound at 0.1 μM, [3H]Rauwolscine, repeat datapoints each shown
[10] = read-out: Percentage inhibition of ligand binding, Adrenergic α2A (0.1 μM), compound at 0.1 μM, [3H]MK-912, repeat datapoints each shown
[11] = read-out: Percentage inhibition of ligand binding, Adrenergic α1B (0.1 μM), compound at 0.1 μM, [3H]Prazosin, repeat datapoints each shown
[12] = read-out: Percentage inhibition of ligand binding, Adrenergic α1D (0.1 μM), compound at 0.1 μM, [3H]Prazosin, repeat datapoints each shown
[13] = 0.1 μM compound, read-out: Percentage inhibition of ligand binding, Adrenergic α2B
[14] = 0.1 μM compound, read-out: Percentage inhibition of ligand binding, Adrenergic α2A
[15] = 0.1 μM compound, read-out: Percentage inhibition of ligand binding, Adrenergic α1B
[16] = 0.1 μM compound, read-out: Percentage inhibition of ligand binding, Adrenergic α1D
[17] = [3H]Prazosin, repeat datapoints each shown

inhibition at 0.1 µM [1, 9] [%] | inhibition at 0.1 µM [2, 10] [%] | inhibition at 0.1 µM [3, 11] [%] | inhibition at 0.1 µM [4, 12] [%] | inhibition at 0.1 µM [1, 13] [%] | inhibition at 0.1 µM [2, 14] [%] | inhibition at 0.1 µM [3, 15] [%] | inhibition at 0.1 µM [4, 16] [%] | Structure (SMILES) | other results
 |  |  |  |  |  |  |  | CN1CCc2c(c3cc(Cl)ccc3n2CCc2cccnc2)C1 [compound 60] | inhibition at 0.03 µM ([1]; compound at 0.03 μM, [3H]Rauwolscine, repeat assays, each datapoint shown, read-out: Percentage inhibition of ligand binding, Adrenergic α2B): 66%; inhibition at 0.1 µM [1, 5]: 93%; pKi ([1]; read-out: Ki α2B): 8.23; inhibition at 0.1 µM [2, 6]: 26%; inhibition at 0.1 µM [3, 7]: 65%; inhibition at 0.1 µM [4, 8]: 35%
79 | 6 | 65 | 45 |  |  |  |  | C/C(=C\n1c2c(c3cc(C)ccc31)CCN(C)CC2)c1ccncn1 [compound 106] | 
 |  |  |  | 79 | 69 | 15 | 7 | CSc1cccc(/C(C)=C/n2c3c(c4cc(Cl)ccc42)CN(C)CC3)c1 [compound 295] | 
 |  |  |  | 92 | 90 | 79 | 93 | C/C(=C/n1c2c(c3cc(C)ccc31)CN(C)CC2)c1cnc(N(C)C)nc1 [compound 279] | 
88 | 20 | 42 | 21 |  |  |  |  | C/C(=C\n1c2c(c3cc(C)ccc31)CN(C)CC2)c1ccnn1C [compound 108] | 
102 | 87 | 87 | 43 |  |  |  |  | C/C(=C\n1c2c(c3cc(C)ccc31)CCN(C)CC2)c1ccccc1F [compound 232] | 
106 | 90 |  |  |  |  |  |  | CN1CCc2c(c3cc(Cl)ccc3n2CCc2ccccc2)C1 [compound 207] | pKi [2]: 8.94; inhibition at 0.03 µM [3, 17]: 49%; inhibition at 0.03 µM [4, 17]: 39%
90 | 53 | 17 | 8 |  |  |  |  | C/C(=C\n1c2c(c3cc(Cl)ccc31)CCN(C)CC2)c1ccc(Cl)cc1Cl [compound 229] | 
 |  |  |  | 93 | 51 | 33 | 35 | Cc1ccc2c(c1)c1c(n2CCc2nc(-c3ccc(Cl)cc3)cs2)CCN(C)C1 [compound 326] | 
 |  |  |  | 95 | 49 | 39 | 31 | C/C(=C\n1c2c(c3cc(C)ccc31)CN(C)CC2)c1ccc(F)nc1 [II-96] | 
94 | 21 | 19 | 24 |  |  |  |  | C/C(=C\n1c2c(c3cc(C)ccc31)CN(C)CC2)c1cn[nH]c1 [compound 115] | 
 |  |  |  | 74 | 87 | 52 | 35 | C/C=C(/c1ccccc1)n1c2c(c3cc(C)ccc31)CN(C)CC2 [compound 262] | 
 |  |  |  | 99 | 94 | 93 | 74 | C/C(=C/n1c2c(c3cc(C)ccc31)CN(C)CC2)c1ccc(F)cc1F [compound 258] | 
97 | 101 |  |  |  |  |  |  | Cc1ccc(CCn2c3c(c4cc(Cl)ccc42)CN(C)CC3)cc1 [compound 208] | inhibition at 0.03 µM [3, 17]: 60%; inhibition at 0.03 µM [4, 17]: 41%
 |  |  |  | 27 | 68 | 28 | 25 | C=CCC1(C)CN(C)Cc2c1n(/C=C(\C)c1ccc(F)cc1)c1ccc(C)cc21 (centres unmarked) [compound 274, 4-allyl-5-[2-(4-fluoro-phenyl)-propenyl]-2,4,8-trimethyl-2,3,4,5-tetrahydro-1H-pyrido[4,3-b]indole] | 
103 | 80 | 73 | 28 |  |  |  |  | C/C(=C\n1c2c(c3cc(Cl)ccc31)CCN(C)CC2)c1ccccc1F [compound 233] | 
 |  |  |  | 4 | 63 | 13 | 8 | Cc1ccc(CCn2c3c(c4c(Cl)c(Cl)ccc42)CN(C)CC3)cn1 [compound 319] | 
 |  |  |  |  |  |  |  | CN1CCc2c(c3cc(Cl)ccc3n2CCC(=O)OCC2CCCCC2)C1 [compound 87] | inhibition at 0.1 µM [1, 5]: 66%; inhibition at 0.1 µM [2, 6]: 14%; inhibition at 0.1 µM [3, 7]: 5%; inhibition at 0.1 µM [4, 8]: 24%
 |  |  |  | 101 | 85 | 89 | 53 | COc1ccc(/C(C)=C/n2c3c(c4cc(C)ccc42)CCN(C)CC3)cc1 [compound 251] | 
 |  |  |  | 99 | 60 | 82 | 73 | C/C(=C\n1c2c(c3cc(C)cnc31)CN(C)CC2)c1ccc(F)cc1 [compound 335, 9-[2-(4-fluoro-phenyl)-propenyl]-3,6-dimethyl-6,7,8,9-tetrahydro-5H-1,6,9-triaza-fluorene] | 
